The record followed here is patent US12365651B2, “Use of pirfenidone and derivatives for modulation of B lymphocyte activity and organ protection from acute tissue damage” (Washington University, priority 2017, dated 2025).

Each structure is given as a SMILES string. Several values for one entry are separate records, joined by “and”; a condition that tells them apart may be missing. Equal values may be shown once.

Series [1] deals with purified B lymphocytes harvested from the spleen. Put plainly: CD86 on cultured purified splenic B lymphocytes. It counts as cell-based, mouse. The source says:
We next sought to determine whether the response of B cells to necrotic cytosolic extracts and LPS were cell autonomous, by repeating the above in vitro experiments in purified B lymphocytes harvested from the spleen. […] In contrast, necrotic cytosolic extracts induced a small, non-statistically significant (p=0.62) upregulation of CD19+ CD86high B cells when compared to diluent treated cells (FIG. 10G). Similar results were obtained in splenic B lymphocytes from TIRAP−/− animals (FIG. 10H).
Peritoneal derived inflammatory cells (PDICs) were harvested from the peritoneal cavity of thioglycolate-stimulated wild-type and TIRAP−/− deficient mice. PDIC cultures contain an admixture of inflammatory cells, including CD19+ B cells (40). TIRAP deficient mice were a gift from Dr. Ruslan Medzhitov (Yale University, New Haven, CT). PDICs were harvested on day 4 after i.p. injection of 1 ml of thioglycolate medium (Millipore, Billerica, MA, USA). Mice were euthanized, and the peritoneal cavity was washed 3-4 times with 3 mLs of Dulbecco's modified medium containing 10% fetal calf serum. A 3 mL syringe with an 18-gauge needle was used to inject the peritoneal cavity and retrieve the medium containing PDICs. Harvested cells were centrifuged at 250 g for 5 minutes, re-suspended in 5 mL of media and then filtered through a 40 μm strainer. […]

The nature of series [2]: Plasma pharmacokinetics after IV or PO administration. It counts as in vivo. The settings on record: SD Rat, PO 40 mg/kg.

In the case of `Cc1ccc(=O)n(-c2ccccc2)c1` [Pirfenidone, 5 methyl-1-phenyl-2-[H] pyridone], the “LPS induced expression of CD86 on B cells” value in series [1] (B lymphocytes from the spleen, 24 hours, LPS + 0.5% pirfenidone) is reported as “significantly reduced”. In series [1] (purified splenic B lymphocytes, wild type, LPS), the “LPS provoked increase in CD19+ CD86high cells” value is “partially sensitive to inhibition”. For the same compound, in series [2], the “AUMC0-t, Mean” value is recorded as 14976 h*h*ng/mL. Further, the “Plasma concentrations of Pirfenidone” value in series [2] (8 h, individual rats 7-9, 40 mg/kg) is “BLOQ (Below lower limit of quantification (1 ng/mL)) and 23.6 ng/ml and 107 ng/ml”. Also, in series [2] (Sprague-Dawley, plasma, individual rats 7-9), the Tmax was 15 min.

One may read the Tmax as the time at which the peak concentration occurs.
